Measurements published in PubChem BioAssay (NCI).
Where “and” joins values, the source holds several entries; their conditions need not be identical. Equal values may be shown once.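 1) Cells in 96-well plates. 2) Compound, 48 h, 5 concentrations. 3) Linear interpolation between surrounding doses. 4) Unreached endpoint = highest concentration. GI50 = concentration required for 50% inhibition of growth. Definition used: TGI = concentration required for complete inhibition of growth.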 Residues, ends and D or L forms follow the SMILES beside them. *: point of attachment. Cbz = O=C(OCc1ccccc1)*

What was measured:
Assay in all cases: NCI anticancer screen, dose series, 48 h
UO-31 renal = tested on: UO-31 renal
NCI-H460 lung = tested on: NCI-H460 lung
T-47D breast = tested on: T-47D breast
M14 melanoma = tested on: M14 melanoma
MOLT-4 leukemia = tested on: MOLT-4 leukemia
NCI-H226 lung = tested on: NCI-H226 lung
OVCAR-8 ovarian = tested on: OVCAR-8 ovarian
HOP-62 NSCLC = tested on: HOP-62 NSCLC
SF-295 CNS = tested on: SF-295 CNS
BT-549 breast = tested on: BT-549 breast

Structure (SMILES)	GI50 (UO-31 renal) [µM]	TGI (UO-31 renal) [µM]	GI50 (NCI-H460 lung)	TGI (NCI-H460 lung)	GI50 (T-47D breast)	TGI (T-47D breast)	GI50 (M14 melanoma) [µM]	TGI (M14 melanoma) [µM]	GI50 (MOLT-4 leukemia)	TGI (MOLT-4 leukemia) [µM]	GI50 (NCI-H226 lung) [µM]	TGI (NCI-H226 lung) [µM]	GI50 (OVCAR-8 ovarian)	TGI (OVCAR-8 ovarian) [µM]	GI50 (HOP-62 NSCLC)	TGI (HOP-62 NSCLC)	GI50 (SF-295 CNS)	TGI (SF-295 CNS)	GI50 (BT-549 breast)	TGI (BT-549 breast) [µM]
Nc1nn(C(=O)Nc2c(F)cccc2F)c2ccccc12	18.6	> 100	33.4 µM	> 100 µM	68.7 µM	> 100 µM	74.6	> 100	32.7 µM	> 100	98.5	> 100	44.2 µM	> 100	51 µM	> 100 µM	54.8 µM	> 100 µM	28.8 µM	> 100
CCCN(CCC)c1ccc(C=O)c(C)c1	21.5	> 100	46.5 µM	> 100 µM	20.8 µM	98.9 µM	44.8	> 100	39.8 µM	> 100	11.3	> 71.5	57.2 µM	> 100	98.1 µM	> 100 µM	29.1 µM	> 100 µM	26.9 µM	> 100
CN1CCN(CCCN2c3ccccc3Sc3ccc(Cl)cc32)CC1	–	9.49	–	11.4 µM and 80.5 µM	5.72 µM and 35.5 µM	13 µM and 62.6 µM	–	–	3.8 µM	11.5	–	–	7.39 µM and 42.8 µM	14.8	6.32 µM and 48.5 µM	13.6 µM and 85.6 µM	6 µM and 33.2 µM	12.8 µM and 55.6 µM	6.56 µM	13.4
COc1cccc(C2SCc3nc4ccccc4n32)c1 (stereo unspecified)	–	95.7	–	> 100 µM	–	–	–	> 100	–	> 100	–	> 100	–	> 100	–	> 100 µM	–	> 100 µM	–	–
COc1ccc(-c2cn(-c3cc(OC)c(OC)c(OC)c3)c(=O)[nH]2)cc1OC	> 100	> 100	> 100 µM	> 100 µM	> 100 µM	> 100 µM	> 100	> 100	> 100 µM	> 100	> 100	> 100	> 100 µM	> 100	> 100 µM	> 100 µM	> 100 µM	> 100 µM	> 100 µM	> 100
CCNCCNc1cc(-c2ccc(C(F)(F)F)cc2)c(C#N)c2nc3cc(Cl)c(Cl)cc3n12	1.65	3.25	1.66 µM	3.27 µM	1.94 µM	3.78 µM	1.59	3.12	–	–	–	–	1.74 µM	3.41	1.96 µM	3.56 µM	1.73 µM	3.2 µM	–	–
CCCCCCCCCCCCCCCCN(CC)CC	1.6	3.47	1.92 µM	3.56 µM	3.39 µM	17 µM	1.94	3.84	–	–	3.74	16.9	–	–	2.87 µM	8.77 µM	1.73 µM	3.55 µM	1.87 µM	3.89
O=[N+]([O-])c1oc2ccc3ccccc3c2c1CCO	–	3.89	–	0.819 µM	–	73.3 µM	–	5.24	–	> 100	–	30.1	–	23.1	–	> 67.1 µM	–	7.04 µM	–	8.71
Cc1ccccc1C(C(=O)NC1CCCCC1)N(C(=O)CNc1ccc(C#N)cc1)c1cccc(F)c1 (stereo unspecified)	> 93.5	> 100	34.4 µM	> 100 µM	31.4 µM	> 100 µM	80.9	> 100	> 100 µM	> 100	14.1	> 94.5	10.6 µM	> 100	3.51 µM	14.4 µM	13.8 µM	44.6 µM	32.5 µM	> 100
Cc1[nH]nc2ncc(C(=O)N3CCC[C@H]3c3ccc(Cl)cc3)cc12	61.2	> 100	> 100 µM	> 100 µM	–	–	> 100	> 100	72.1 µM	> 100	64.1	> 100	> 100 µM	> 100	> 100 µM	> 100 µM	63.5 µM	> 100 µM	50.6 µM	> 100
CN(C)c1ccccc1[CH2][Ga]([Cl])[CH2]c1ccccc1N(C)C	–	–	1.76 µM	3.58 µM	1.39 µM	3.78 µM	1.3	2.85	0.927 µM	5.37	0.537	1.95	1.47 µM	3.23	1.21 µM	2.57 µM	0.964 µM	2.48 µM	1.83 µM	3.29
O=C1c2cc(F)ccc2-c2c1c1ccc([N+](=O)[O-])cc1c(=O)n2CCCBr	13.9	> 100	4.56 µM	> 100 µM	7.53 µM	> 100 µM	13.3	46.3	2.8 µM	14.2	22.6	> 100	12.2 µM	> 100	2.28 µM	8.64 µM	17.8 µM	> 100 µM	–	–
N#CC1=C(N)Oc2c(sc3c(Br)cccc23)C1c1ccc(Cl)cc1 (stereo unspecified)	0.614	2.54	–	–	0.464 µM	11.6 µM	0.45	2.65	0.625 µM	6.49	1.49	10.4	1.71 µM	8.29	0.89 µM	6.42 µM	0.276 µM	0.869 µM	0.962 µM	12.7
COC(=O)[C@@H](C)C[C@H](Cc1ccccc1)NC(=O)c1csc([C@@H](C[C@H](C(C)C)N(C)C(=O)[C@@H](NC(=O)[C@H]2CCCN2C)C2CC2)OC(C)=O)n1	–	> 25	0.00238 µM and 0.0025 µM	> 25 µM	–	–	–	–	0.00316 µM and 0.0025 µM	> 25	–	> 25	0.00262 µM and 0.0025 µM	> 25	0.00255 µM and 0.0025 µM	> 25 µM	0.00302 µM and 0.0025 µM	> 25 µM	0.000664 µM and < 0.0025 µM	–
C=C1CC2(CCS(=O)(=O)c3ccccc32)OC1=O (stereo unspecified)	–	26	–	35.3 µM	–	–	–	20.3	–	15	–	28.9	–	–	–	46.8 µM	–	45 µM	–	–
Cc1c2c(nn1-c1ccc(S(=O)(=O)NC(=S)NC(=O)c3ccccc3)cc1)-c1ccccc1CC2	> 100	> 100	45.1 µM	> 100 µM	44.9 µM	> 100 µM	> 100	> 100	> 100 µM	> 100	60.2	> 100	72.4 µM	> 100	> 100 µM	> 100 µM	17.4 µM	48.6 µM	–	–
Cn1c(-c2c(N)n(Cc3ccc(F)cc3)c3nc(C#N)c(C#N)nc23)nc2ccccc21	2.51	> 50	2.21 µM	25.2 µM	1.08 µM	4.61 µM	3.48	> 50	–	–	–	–	1.63 µM	11.8	2.32 µM	22.5 µM	7.68 µM	32.5 µM	2.79 µM	18.2

Structure (SMILES)	GI50 (UO-31 renal) [µM]	TGI (UO-31 renal) [µM]	GI50 (NCI-H460 lung)	TGI (NCI-H460 lung)	GI50 (T-47D breast)	TGI (T-47D breast)	GI50 (M14 melanoma) [µM]	TGI (M14 melanoma) [µM]	GI50 (MOLT-4 leukemia)	TGI (MOLT-4 leukemia) [µM]	GI50 (NCI-H226 lung) [µM]	TGI (NCI-H226 lung) [µM]	GI50 (OVCAR-8 ovarian)	TGI (OVCAR-8 ovarian) [µM]	GI50 (HOP-62 NSCLC)	TGI (HOP-62 NSCLC)	GI50 (SF-295 CNS)	TGI (SF-295 CNS)	GI50 (BT-549 breast)	TGI (BT-549 breast) [µM]
CCOC(=O)c1cc(NS(=O)(=O)c2ccc(C)cc2)cc(C(=O)OCC)c1	39.1	> 100	37.5 µM	> 100 µM	21.1 µM	83.6 µM	52.5	> 100	26.6 µM	> 100	54	> 100	–	–	79.6 µM	> 100 µM	44.9 µM	> 100 µM	34.8 µM	> 100
N#CCc1nnc(N)o1	–	> 100	–	–	–	–	–	> 100	–	> 100	–	> 100	–	–	–	–	–	> 100 µM	–	–
O=C(O)CN(c1ccc(F)cc1)S(=O)(=O)c1ccccc1	–	> 100	–	> 100 µM	–	–	–	> 100	–	> 100	–	> 100	–	> 100	–	–	–	> 100 µM	–	–
COC(=O)C1[C@H](c2ccc3c(c2)OCO3)OC(=O)[C@]1(C(=O)OC)C(=O)c1ccc(OC)c(OC)c1 (stereo partly specified)	–	> 100	–	> 100 µM	–	–	–	> 100	–	87.2	–	> 100	–	> 100	–	> 100 µM	–	> 100 µM	–	–
CC[PH+](CC)CC.CC[PH+](CC)CC.[Au]	21.4	35.8	23.5 µM	60.9 µM	–	–	6.68	22	5.33 µM	24.1	18.2	37.5	17.9 µM	38.1	22 µM	36.6 µM	13.5 µM	26.9 µM	–	–
CCOC(=O)CN(c1ccccc1)c1nc(=[N+](C)C)ss1	–	54.5	–	–	–	–	–	96.8	–	28.2	–	75.4	–	70.1	–	> 100 µM	–	–	–	–
CC(=O)OCC1OC(n2ncc(=O)[nH]c2=O)C(OC(C)=O)C1OC(C)=O (stereo unspecified)	–	–	–	> 100 µM	–	> 100 µM	–	> 100	–	> 100	–	> 100	–	> 100	–	> 100 µM	–	> 100 µM	–	–
O=c1cccc2n1CC1CNC[C@H]2C1	–	> 100	–	> 100 µM	–	> 100 µM	–	> 100	–	> 100	–	–	–	> 100	–	> 100 µM	–	> 100 µM	–	> 100
Cc1ccc(C(=O)NCCN(C)C)c2nc3ccccc3cc12	–	11.1	–	14.7 µM	–	–	–	> 100	–	> 100	–	3.85	–	7.99	–	> 100 µM	–	3.8 µM	–	–
CN(C)CCNC(=O)c1ccc2oc3cc4ccccc4c(=O)n3c2c1	19.6	47.5	42.2 µM	> 100 µM	34.6 µM	> 100 µM	52	> 100	64.2 µM	> 100	–	–	23.1 µM	76.2	> 100 µM	> 100 µM	28 µM	> 100 µM	27.4 µM	66.2
C=C1C(=O)C2=CC1CCC(=O)C1(C)CCC(OC(C)=O)C(C)(C)C1CC2O (stereo unspecified)	–	5.38	–	4.64 µM	–	21.8 µM	–	10.4	–	–	–	31.9	–	16.5	–	22.8 µM	–	25.6 µM	–	9.33
O=C(O)c1cn(C2CC2)c2cc(N3CCN(Cc4c(O)ccc5ccccc45)CC3)c(F)cc2c1=O	3.71	> 100	–	–	> 100 µM	> 100 µM	3.95	> 100	–	–	5.45	> 100	4.61 µM	> 100	3.99 µM	43.1 µM	8.22 µM	> 100 µM	3.5 µM	48.7
Cc1ccc(C2=Nc3ccccc3S(=O)C(c3ccc4c(c3)OCO4)C2)cc1 (stereo unspecified)	–	> 100	–	> 10 µM	–	–	–	38	–	> 100	–	> 100	–	46.9	–	> 100 µM	–	> 100 µM	–	–
NC(N)=N/N=C/c1c(-c2cccnc2)nc2sc(Cl)cn12	33.8	> 100	61.2 µM	> 100 µM	–	–	16.5	30.1	13.6 µM	31.6	13.4	28	16.5 µM	38.7	18 µM	31.9 µM	13.8 µM	28.1 µM	16.3 µM	32.4
O=C1C(=O)N(c2ccc(Cl)cc2)C(=O)C(=Nc2cccc3c(=O)[nH][nH]c(=O)c23)C1c1nc2ccccc2o1 (stereo unspecified)	–	> 100	–	> 100 µM	–	–	–	> 100	–	> 100	–	> 100	–	> 100	–	> 100 µM	–	> 100 µM	–	–
CC(C)C[C@@H](C=O)NC(=O)[C@H](CC(C)C)NC(=O)[C@H](CC(C)C)NC(=O)OCc1ccccc1 (Cbz-Leu-Leu-Leu-aldehyde)	0.252	0.943	0.455 µM	2.02 µM	0.222 µM	0.598 µM	0.338	1.74	0.322 µM	11.9	–	–	0.523 µM	4.66	–	–	0.39 µM	1.77 µM	0.337 µM	1.25
